pIC50: −log10 of the molar value. Starred links: 1 amine or outer side, 2 acyl side, 3 side chain; linkers in the order of their positions; H or OH if unused. Positions of bridges follow the written chain, without caps; N, C: chain ends. Non-standard residues stand in square brackets, D forms with d. Residues, ends and D or L forms follow the SMILES beside them. ξ: configuration not given here. Ala(piperidin-4-yl) = O=C([C@H](CC1CCN([*:3])CC1)N[*:1])[*:2]; Ala(indan-2-yl) = N[C@@H](CC1Cc2ccccc2C1)C(=O)O; Phe(4-COOH) = N[C@@H](Cc1ccc(C(=O)O)cc1)C(=O)O; X3 = O=C(O)CN1CCC(N[*:1])(C(=O)[*:2])CC1; Phe(4-F) = N[C@@H](Cc1ccc(F)cc1)C(=O)O; 3Pal = N[C@@H](Cc1cccnc1)C(=O)O; NMeE = CN[C@@H](CCC(=O)O)C(=O)O; dNMeE = CN[C@H](CCC(=O)O)C(=O)O; Cha = N[C@@H](CC1CCCCC1)C(=O)O; Cit = NC(=O)NCCC[C@H](N)C(=O)O; dNMeD = CN[C@H](CC(=O)O)C(=O)O; NMeNle = CCCC[C@H](NC)C(=O)O; ξαMeS = CC(N)(CO)C(=O)O; Aib = CC(C)(N)C(=O)O; Sar = CNCC(=O)O

This test deals with SARS-CoV-2-derived S protein, Delta strain. Format: cell-based. To be noted: Table 12.

`CCCC[C@H]1C(=O)NC(C)(C)C(=O)N[C@@H](CC2CCCCC2)C(=O)N[C@@H](Cc2ccc(F)cc2)C(=O)NC2(CCN(CC(=O)O)CC2)C(=O)N[C@@H](Cc2ccc(O)cc2)C(=O)N[C@@H](Cc2ccc(O)cc2)C(=O)N[C@@H](Cc2ccc(C(=O)O)cc2)C(=O)N[C@@H](CC2CCNCC2)C(=O)N[C@@H](CC2CCCCC2)C(=O)N[C@H](C(=O)N[C@H](CCC(=O)O)C(N)=O)CSCC(=O)N(C)[C@@H](CCC(=O)O)C(=O)N1C` [Peptide 5555_p173] ({CH2CO}-[NMeE][NMeNle][Aib][Cha][Phe(4-F)][X3]YY[Phe(4-COOH)][Ala(piperidin-4-yl)][Cha]C[dE]-NH2; thioether N-12): the negative-log IC50 (pIC50) is 9.22 and the “Imax: % (at 500 nM)” value was determined as 100%.

`CCCC[C@H]1C(=O)NC(C)(C)C(=O)N[C@@H](CC2CCCCC2)C(=O)N[C@@H](Cc2ccc(F)cc2)C(=O)N(C)[C@H](CC(=O)O)C(=O)N[C@@H](Cc2ccc(O)cc2)C(=O)N[C@@H](Cc2ccc(O)cc2)C(=O)N[C@@H](Cc2ccc(C(=O)O)cc2)C(=O)N[C@@H](CC2CCNCC2)C(=O)N[C@@H](CC2CCCCC2)C(=O)N[C@H](C(=O)N[C@H](CCC(=O)O)C(N)=O)CSCC(=O)N(C)[C@@H](CCC(=O)O)C(=O)N1C` [Peptide 5555_p176] ({CH2CO}-[NMeE][NMeNle][Aib][Cha][Phe(4-F)][dNMeD]YY[Phe(4-COOH)][Ala(piperidin-4-yl)][Cha]C[dE]-NH2; thioether N-12): the pIC50 is 9.22 and the “Imax: % (at 500 nM)” value worked out at 100%.

For the compound `CCCC[C@H]1C(=O)NC(C)(C)C(=O)N[C@@H](CC2CCCCC2)C(=O)N[C@@H](Cc2ccc(F)cc2)C(=O)N[C@H](CC(=O)O)C(=O)N[C@@H](Cc2ccc(O)cc2)C(=O)N[C@@H](Cc2ccc(O)cc2)C(=O)N[C@@H](CCCNC(N)=O)C(=O)N[C@H](CCCCN)C(=O)N[C@@H](CC2CCCCC2)C(=O)N[C@H](C(=O)N[C@H](CCC(=O)O)C(N)=O)CSCC(=O)N[C@@H](Cc2cccnc2)C(=O)N1C` [Peptide 5555_p177] ({CH2CO}-[3Pal][NMeNle][Aib][Cha][Phe(4-F)][dD]YY[Cit][dK][Cha]C[dE]-NH2; thioether N-12), the negative logarithm of the IC50 (pIC50) is 8.55 and the “Imax: % (at 500 nM)” value is recorded as 97%.

For `CCCC[C@H]1C(=O)NC(C)(C)C(=O)N[C@@H](CC2Cc3ccccc3C2)C(=O)N[C@@H](Cc2ccc(F)cc2)C(=O)N[C@H](CC(=O)O)C(=O)N[C@@H](Cc2ccc(O)cc2)C(=O)N[C@@H](Cc2ccc(O)cc2)C(=O)N[C@@H](CCCNC(N)=O)C(=O)N[C@H](CCCCN)C(=O)N[C@@H](CC2CCCCC2)C(=O)N[C@H](C(=O)N[C@H](CCC(=O)O)C(N)=O)CSCC(=O)N[C@@H](Cc2cccnc2)C(=O)N1C` [Peptide 5555_p178] ({CH2CO}-[3Pal][NMeNle][Aib][Ala(indan-2-yl)][Phe(4-F)][dD]YY[Cit][dK][Cha]C[dE]-NH2; thioether N-12), the pIC50 was 8.72 and the “Imax: % (at 500 nM)” value stood at 100%.

Consider `CCCC[C@H]1C(=O)NC(C)(C)C(=O)N[C@@H](CC2CCCCC2)C(=O)N[C@@H](Cc2ccc(F)cc2)C(=O)N2CCC[C@H]2C(=O)N[C@@H](Cc2ccc(O)cc2)C(=O)N[C@@H](Cc2ccc(O)cc2)C(=O)N[C@@H](CCCNC(N)=O)C(=O)N[C@H](CCCCN)C(=O)N[C@@H](CC2CCCCC2)C(=O)N[C@H](C(=O)N[C@H](CCC(=O)O)C(N)=O)CSCC(=O)N(C)[C@@H](CCC(=O)O)C(=O)N1C` [Peptide 5555_p188] ({CH2CO}-[NMeE][NMeNle][Aib][Cha][Phe(4-F)]PYY[Cit][dK][Cha]C[dE]-NH2; thioether N-12), for which the pIC50 is 9.40 and the “Imax: % (at 500 nM)” value is 101%.

For `CCCC[C@H]1C(=O)NC(C)(C)C(=O)N[C@@H](CC2CCCCC2)C(=O)N[C@@H](Cc2ccc(F)cc2)C(=O)N(C)[C@H](CCC(=O)O)C(=O)N[C@@H](Cc2ccc(O)cc2)C(=O)N[C@@H](Cc2ccc(O)cc2)C(=O)N[C@@H](Cc2ccc(C(=O)O)cc2)C(=O)N[C@@H](CC2CCNCC2)C(=O)N[C@@H](CC2CCCCC2)C(=O)N[C@H](C(=O)N[C@H](CCC(=O)O)C(N)=O)CSCC(=O)N[C@@H](Cc2cccnc2)C(=O)N1C` [Peptide 5555_p192] ({CH2CO}-[3Pal][NMeNle][Aib][Cha][Phe(4-F)][dNMeE]YY[Phe(4-COOH)][Ala(piperidin-4-yl)][Cha]C[dE]-NH2; thioether N-12), the pIC50 is 8.60 and the “Imax: % (at 500 nM)” value is recorded as 102%.

For `CCCC[C@H]1C(=O)NC(C)(C)C(=O)N[C@@H](CC2CCCCC2)C(=O)N[C@@H](Cc2ccc(F)cc2)C(=O)N[C@H](CC(=O)O)C(=O)N[C@@H](Cc2ccc(O)cc2)C(=O)N[C@@H](Cc2ccc(O)cc2)C(=O)N[C@@H](Cc2ccc(C(=O)O)cc2)C(=O)N[C@@H](CC2CCNCC2)C(=O)N[C@@H](CC2CCCCC2)C(=O)N[C@H](C(=O)N[C@H](CCC(=O)O)C(N)=O)CSCC(=O)N[C@@H](Cc2cccnc2)C(=O)N1C` [Peptide 5555_p195] ({CH2CO}-[3Pal][NMeNle][Aib][Cha][Phe(4-F)][dD]YY[Phe(4-COOH)][Ala(piperidin-4-yl)][Cha]C[dE]-NH2; thioether N-12), the pIC50 is 8.64 and the “Imax: % (at 500 nM)” value is recorded as 101%.

`CCCC[C@H]1C(=O)NC(C)(C)C(=O)N[C@@H](CC2Cc3ccccc3C2)C(=O)N[C@@H](Cc2ccc(F)cc2)C(=O)NC2(CCN(CC(=O)O)CC2)C(=O)N[C@@H](Cc2ccc(O)cc2)C(=O)N[C@@H](Cc2ccc(O)cc2)C(=O)N[C@@H](Cc2ccc(C(=O)O)cc2)C(=O)N[C@@H](CC2CCNCC2)C(=O)N[C@@H](CC2CCCCC2)C(=O)N[C@H](C(=O)N[C@H](CCC(=O)O)C(N)=O)CSCC(=O)N(C)[C@@H](CCC(=O)O)C(=O)N1C` [Peptide 5555_p196] ({CH2CO}-[NMeE][NMeNle][Aib][Ala(indan-2-yl)][Phe(4-F)][X3]YY[Phe(4-COOH)][Ala(piperidin-4-yl)][Cha]C[dE]-NH2; thioether N-12): the pIC50 was 9.10 and the “Imax: % (at 500 nM)” value is on record as 101%.

For `CCCC[C@H]1C(=O)NC(C)(C)C(=O)N[C@@H](CC2Cc3ccccc3C2)C(=O)N[C@@H](Cc2ccc(F)cc2)C(=O)NC(C)(CO)C(=O)N[C@@H](Cc2ccc(O)cc2)C(=O)N[C@@H](Cc2ccc(O)cc2)C(=O)N[C@@H](Cc2ccc(C(=O)O)cc2)C(=O)N[C@@H](CC2CCNCC2)C(=O)N[C@@H](CC2CCCCC2)C(=O)N[C@H](C(=O)N[C@H](CCC(=O)O)C(N)=O)CSCC(=O)N(C)[C@@H](CCC(=O)O)C(=O)N1C` (stereo partly shown) [Peptide 5555_p197] ({CH2CO}-[NMeE][NMeNle][Aib][Ala(indan-2-yl)][Phe(4-F)][ξαMeS]YY[Phe(4-COOH)][Ala(piperidin-4-yl)][Cha]C[dE]-NH2; thioether N-12), the pIC50 is 9.40 and the “Imax: % (at 500 nM)” value was 101%.

Regarding `CCCC[C@H]1C(=O)NC(C)(C)C(=O)N[C@@H](CC2Cc3ccccc3C2)C(=O)N[C@@H](Cc2ccc(F)cc2)C(=O)N2CCC[C@H]2C(=O)N[C@@H](Cc2ccc(O)cc2)C(=O)N[C@@H](Cc2ccc(O)cc2)C(=O)N[C@@H](Cc2ccc(C(=O)O)cc2)C(=O)N[C@@H](CC2CCNCC2)C(=O)N[C@@H](CC2CCCCC2)C(=O)N[C@H](C(=O)N[C@H](CCC(=O)O)C(N)=O)CSCC(=O)N(C)[C@@H](CCC(=O)O)C(=O)N1C` [Peptide 5555_p201] ({CH2CO}-[NMeE][NMeNle][Aib][Ala(indan-2-yl)][Phe(4-F)]PYY[Phe(4-COOH)][Ala(piperidin-4-yl)][Cha]C[dE]-NH2; thioether N-12), the pIC50 is 9.15 and the “Imax: % (at 500 nM)” value is on record as 101%.

Turning to `CCCC[C@H]1C(=O)NC(C)(C)C(=O)N[C@@H](CC2CCCCC2)C(=O)N[C@@H](Cc2ccc(F)cc2)C(=O)NC(C)(CO)C(=O)N[C@@H](Cc2ccc(O)cc2)C(=O)N[C@@H](Cc2ccc(O)cc2)C(=O)N[C@@H](Cc2ccc(C(=O)O)cc2)C(=O)N[C@@H](CC2CCNCC2)C(=O)N[C@@H](CC2CCCCC2)C(=O)N[C@H](C(=O)N[C@H](CCC(=O)O)C(N)=O)CSCC(=O)N(C)[C@@H](CCC(=O)O)C(=O)N1C` (stereo partly shown) [Peptide 5555_p203] ({CH2CO}-[NMeE][NMeNle][Aib][Cha][Phe(4-F)][ξαMeS]YY[Phe(4-COOH)][Ala(piperidin-4-yl)][Cha]C[dE]-NH2; thioether N-12), the pIC50 was 9.30 and the “Imax: % (at 500 nM)” value stood at 101%.

In the case of `CCCC[C@H]1C(=O)NC(C)(C)C(=O)N[C@@H](CC2Cc3ccccc3C2)C(=O)N[C@@H](Cc2ccc(F)cc2)C(=O)N(C)CC(=O)N[C@@H](Cc2ccc(O)cc2)C(=O)N[C@@H](Cc2ccc(O)cc2)C(=O)N[C@@H](CCCNC(N)=O)C(=O)N[C@H](CCCCN)C(=O)N[C@@H](CC2CCCCC2)C(=O)N[C@H](C(=O)N[C@H](CCC(=O)O)C(N)=O)CSCC(=O)N(C)[C@@H](CCC(=O)O)C(=O)N1C` [Peptide 5555_p213] ({CH2CO}-[NMeE][NMeNle][Aib][Ala(indan-2-yl)][Phe(4-F)][Sar]YY[Cit][dK][Cha]C[dE]-NH2; thioether N-12), the pIC50 was 9.22 and the “Imax: % (at 500 nM)” value turned out to be 101%.

For `CCCC[C@H]1C(=O)NC(C)(C)C(=O)N[C@@H](CC2Cc3ccccc3C2)C(=O)N[C@@H](Cc2ccc(F)cc2)C(=O)N2CCC[C@H]2C(=O)N[C@@H](Cc2ccc(O)cc2)C(=O)N[C@@H](Cc2ccc(O)cc2)C(=O)N[C@@H](CCCNC(N)=O)C(=O)N[C@H](CCCCN)C(=O)N[C@@H](CC2CCCCC2)C(=O)N[C@H](C(=O)N[C@H](CCC(=O)O)C(N)=O)CSCC(=O)N(C)[C@@H](CCC(=O)O)C(=O)N1C` [Peptide 5555_p216] ({CH2CO}-[NMeE][NMeNle][Aib][Ala(indan-2-yl)][Phe(4-F)]PYY[Cit][dK][Cha]C[dE]-NH2; thioether N-12), the pIC50 was 9.40 and the “Imax: % (at 500 nM)” value is listed as 102%.

Consider `CCCC[C@H]1C(=O)NC(C)(C)C(=O)N[C@@H](CC2CCCCC2)C(=O)N[C@@H](Cc2ccc(F)cc2)C(=O)NC(C)(CO)C(=O)N[C@@H](Cc2ccc(O)cc2)C(=O)N[C@@H](Cc2ccc(O)cc2)C(=O)N[C@@H](CCCNC(N)=O)C(=O)N[C@H](CCCCN)C(=O)N[C@@H](CC2CCCCC2)C(=O)N[C@H](C(=O)N[C@H](CCC(=O)O)C(N)=O)CSCC(=O)N(C)[C@@H](CCC(=O)O)C(=O)N1C` (stereo partly shown) [Peptide 5555_p218] ({CH2CO}-[NMeE][NMeNle][Aib][Cha][Phe(4-F)][ξαMeS]YY[Cit][dK][Cha]C[dE]-NH2; thioether N-12), for which the pIC50 is 9.52 and the “Imax: % (at 500 nM)” value came to 101%.

As a reminder, the pIC50 is −log10 of the IC50, conventionally taken in molar units.

The record behind these values is patent US20240209027A1, “PEPTIDE AND PEPTIDE-CONTAINING COMPOSITION” (PeptiAID Inc.,, priority 2021, published 2024).
